Measured values as given in patent publication US20240254135A1, “POLYPHENOL COMPOUNDS” (Epirium Bio Inc., priority 2022, published 2024).

Test system: PGC-1α
Test: In vivo PGC-1α expression in liver of LPS-treated mice (ELISA)
Parameters: species or system C57BL/6 mice
Settings: for PGC-1α level / PGC-1α levels: liver, male C57BL/6 mice, LPS 3 mg/Kg IP + compound 10 mg/kg PO BID, 24 h post LPS; for PGC-1α levels: third set: Control 38327, LPS alone 16860
Experimental: C57BL/6 mice were procured from Vivo Bio Tech Ltd. Male mice were used for the study within an age range of 7 to 8 weeks. Body weight for these mice ranged from 20 g to 25 g. Animals were housed in a group of 6 in individually ventilated cages with temperature of 22±3° C., a relative humidity of 50 to 60%. The bottom of the cages was layered with sterilized corn cob. Animals were provided with gamma irradiated feed and autoclaved drinking water ad-libitum. The IVCs were maintained at an environment controlled (Centrally Air-Conditioned) room at a temperature of 22±3° C., a relative humidity of 50 to 60%, light intensity of 250-300 lux and a 12 hour light-dark cycle and noise intensity of <85 db.
Method of Preparation: LPS was dosed at 3 mg/kg in a dose volume of 10 ml/kg. For this, 0.3 mg/ml of LPS solution (Micronized suspension) was prepared. Butter paper was placed on analytical balance, tarred and LPS was placed on butter paper and its weight was noted down. LPS was transferred to 15 ml falcon tube. Then required amount of normal saline was added to it to make it 0.3 mg/ml. The solution was vortexed properly for 5 minutes and placed on ice. LPS solution was vortexed every time before aspiration and injection.
LPS was dosed at 3 mg/kg. Each test compound was dosed at 10 mg/kg, 2 hour and 15 min post LPS administration.
0.5% CMC was used as a vehicle with a dose volume of 10 ml/kg. An IP route was used for LPS, and a PO route was used for each test compound. Animals were sacrificed 24 hours post LPS dosing, and plasma were collected. PGC-1α level was measured in liver samples, and other tissues were stored for future analysis. PGC-1α level was checked using ELISA kit—CUSABIO Mouse PPARGCIA ELISA kit.
Protocol: One day before start of the experiment C57BL/6 Mice (Male, 6-7-week-old) were randomized on the basis of their body weight and were divided into groups. All the cages were assigned the respective group name. Animals inside each cage were marked on the base of the tails with permanent marker to distinguish each animal. Mice were fasted overnight. Next day morning animals were dosed with test item. Group 1 (Control) and Group 2 (LPS) Animals were dosed with vehicle (0.5% CMC). Test items were prepared in 0.5% CMC by trituration in mortar and pestle and addition of CMC drop by drop. 2 hour post test item/vehicle dosing animals were administered with LPS through IP route at 3 mg/kg of body weight. Group 1 (Control) animals were administered with saline. 0.25 hour post LPS administration, animals were again dosed with test item/vehicle. Post dosing, animals were returned to their respective cages and kept until termination of the study. No feed was offered to any group. Animals were provided with water. 24 hour post LPS administration, blood was collected from each animal under influence of mild isoflurane anesthesia through retro-orbital technique. Animals were sacrificed by CO2 asphyxiation technique. Post-termination, animals were dissected and vital organs, liver, brain, skeleton muscle were collected in Eppendorf tubes and flash frozen in liquid nitrogen. Serum was collected from whole blood by centrifuging it at 4° C. at 10,000 RPM and for 10 minutes. (Blood was left for 2 hour for coagulation before centrifugation) After completion of the experiment, all collected samples were stored at −80° C. until analysis.
Assay Methods/Protocol: The mortar was chilled with liquid nitrogen and then the small tissue pieces were grinded in the presence of liquid nitrogen to a fine powder. Immediately after grinding, transferred small amount of tissue powder to a 1.5 ml micro centrifuge tube containing 1.0 ml lysis buffer (RIPA buffer+Protease inhibitor). The samples were then incubated on ice for 2 hours. The samples were vortexed every 15 minutes. The samples were then centrifuged at 13000×g for 15 minutes at 2-8° C. After centrifugation the supernatant was removed carefully and pellet was discarded. […]

[1] = as E21, relative to Control = 100, LPS alone 51
[2] = first set: Control 35303, LPS alone 18139
[3] = as E23, relative to Control = 100, LPS alone 66
[4] = second set: Control 25677, LPS alone 16956
[5] = as E25, relative to Control = 100, LPS alone 44

Structure (SMILES) | PGC-1α level (%) [1] | PGC-1α level [2] | PGC-1α level (%) [3] | PGC-1α level [4] | PGC-1α level (%) [5] | PGC-1α levels
COc1cc(C2Oc3ccccc3CC2O)ccc1F (single isomer, unassigned) [Compound 75b, 2-(4-fluoro-3-methoxyphenyl)chroman-3-ol] | 92% | 32354 pg/mL | – | – | – | –
Oc1cc(O)c2c(c1)OC(c1ccc(O)c(F)c1)C(O)C2 (single isomer, unassigned) [Compound 76b, 2-(3-fluoro-4-hydroxyphenyl)chromane-3,5,7-triol] | – | – | 81% | 20790 pg/mL | – | –
Oc1ccc2c(c1)OC(c1ccc(O)c(C(F)(F)F)c1)C(O)C2 (single isomer, unassigned) [Compound 77b, 2-(4-hydroxy-3-(trifluoromethyl)phenyl)chromane-3,7-diol] | – | – | 148% | 37954 pg/mL | – | –
Oc1cc(O)c2c(c1)OC(c1ccccc1)C(O)C2 (single isomer, unassigned) [Compound 78a, 2-phenylchromane-3,5,7-triol] | – | – | – | – | 96% | 36967 pg/mL
Oc1cc(O)c2c(c1)O[C@H](c1ccc(O)c(O)c1)[C@H](O)C2 [Epicatechin, (+)Epicatechin, reference compound] | 90% | 31729 pg/mL | 122% | 31225 pg/mL | 71% | 27272 pg/mL
